Blank lines part the entries; values can stand above or below the molecule they belong to. Activity calls are given as the source filed them. No cut-off for these calls is given here.
Experiments:
[1] = AUC(0 to time) in beagle dog at 0.01 mg/kg, po; type: ADME, organism-based, Canis lupus familiaris; details: in vivo
[2] = Volume of distribution at steady state in beagle dog at 0.025 mg/kg, iv; type: ADME, organism-based, Canis lupus familiaris; details: in vivo, read-out: Vdss
Canis familiaris [3] = test: AUC(0 to infinity) in beagle dog at 0.025 mg/kg, iv; type: ADME, organism-based, Canis lupus familiaris; design: dose 0.025 mg/kg, time infinity, route intravenous; details: in vivo
[4] = Tmax in beagle dog at 0.01 mg/kg, po; type: ADME, organism-based, Canis lupus familiaris; details: in vivo
[5] = AUC(0 to t) in beagle dog at 0.025 mg/kg, iv; type: ADME, organism-based, Canis lupus familiaris; details: in vivo
[6] = Apparent oral volume of distribution in beagle dog at 0.01 mg/kg, po; type: ADME, organism-based, Canis lupus familiaris; details: in vivo
[7] = Clearance in beagle dog at 0.025 mg/kg, iv; type: ADME, organism-based, Canis lupus familiaris; details: in vivo
Canis familiaris [8] = test: AUC(0 to infinity) in beagle dog at 0.01 mg/kg, po; type: ADME, organism-based, Canis lupus familiaris; design: dose 0.01 mg/kg, time infinity, route oral; details: in vivo
[9] = Cmax in beagle dog at 0.025 mg/kg, iv; type: ADME, organism-based, Canis lupus familiaris; design: dose 0.025 mg/kg, route intravenous; details: in vivo
[10] = Half life in beagle dog at 0.025 mg/kg, iv; type: ADME, organism-based, Canis lupus familiaris; details: in vivo
Canis familiaris [11] = test: Clast in beagle dog at 0.025 mg/kg, iv; type: ADME, organism-based, Canis lupus familiaris; details: in vivo
[12] = Cmax in beagle dog at 0.01 mg/kg, po; type: ADME, organism-based, Canis lupus familiaris; design: dose 0.01 mg/kg, route oral; details: in vivo
[13] = Half life in beagle dog at 0.01 mg/kg, po; type: ADME, organism-based, Canis lupus familiaris; details: in vivo
Canis familiaris [14] = test: Absolute oral bioavailability in beagle dog at 0.01 mg/kg; type: ADME, organism-based, Canis lupus familiaris; details: in vivo
Canis familiaris [15] = test: Clast in beagle dog at 0.01 mg/kg, po; type: ADME, organism-based, Canis lupus familiaris; details: in vivo
[16] = Volume of distribution at steady state in Sprague-Dawley rat at 5 mg/kg, iv by LC-MS/MS analysis; type: ADME, organism-based; details: in vivo, read-out: Vdss
Rattus norvegicus [17] = test: (§1) Oral bioavailability in Sprague-Dawley rat at 10 mg/kg by LC-MS/MS analysis; type: ADME, organism-based; details: in vivo
[18] = (§2) Terminal eliminational half life in Sprague-Dawley rat at 5 mg/kg, iv by LC-MS/MS analysis; type: ADME, organism-based; details: Sprague-Dawley, in vivo, read-out: beta t1/2 (converted)
[19] = molecular target: Poly [ADP-ribose] polymerase 1 (Homo sapiens, UniProt P09874); test: Inhibition of human PARP1 using [3H]NAD as substrate after 1 min by microplate scintillation counting analysis
Sequence of Poly [ADP-ribose] polymerase 1 (P09874 whole entry): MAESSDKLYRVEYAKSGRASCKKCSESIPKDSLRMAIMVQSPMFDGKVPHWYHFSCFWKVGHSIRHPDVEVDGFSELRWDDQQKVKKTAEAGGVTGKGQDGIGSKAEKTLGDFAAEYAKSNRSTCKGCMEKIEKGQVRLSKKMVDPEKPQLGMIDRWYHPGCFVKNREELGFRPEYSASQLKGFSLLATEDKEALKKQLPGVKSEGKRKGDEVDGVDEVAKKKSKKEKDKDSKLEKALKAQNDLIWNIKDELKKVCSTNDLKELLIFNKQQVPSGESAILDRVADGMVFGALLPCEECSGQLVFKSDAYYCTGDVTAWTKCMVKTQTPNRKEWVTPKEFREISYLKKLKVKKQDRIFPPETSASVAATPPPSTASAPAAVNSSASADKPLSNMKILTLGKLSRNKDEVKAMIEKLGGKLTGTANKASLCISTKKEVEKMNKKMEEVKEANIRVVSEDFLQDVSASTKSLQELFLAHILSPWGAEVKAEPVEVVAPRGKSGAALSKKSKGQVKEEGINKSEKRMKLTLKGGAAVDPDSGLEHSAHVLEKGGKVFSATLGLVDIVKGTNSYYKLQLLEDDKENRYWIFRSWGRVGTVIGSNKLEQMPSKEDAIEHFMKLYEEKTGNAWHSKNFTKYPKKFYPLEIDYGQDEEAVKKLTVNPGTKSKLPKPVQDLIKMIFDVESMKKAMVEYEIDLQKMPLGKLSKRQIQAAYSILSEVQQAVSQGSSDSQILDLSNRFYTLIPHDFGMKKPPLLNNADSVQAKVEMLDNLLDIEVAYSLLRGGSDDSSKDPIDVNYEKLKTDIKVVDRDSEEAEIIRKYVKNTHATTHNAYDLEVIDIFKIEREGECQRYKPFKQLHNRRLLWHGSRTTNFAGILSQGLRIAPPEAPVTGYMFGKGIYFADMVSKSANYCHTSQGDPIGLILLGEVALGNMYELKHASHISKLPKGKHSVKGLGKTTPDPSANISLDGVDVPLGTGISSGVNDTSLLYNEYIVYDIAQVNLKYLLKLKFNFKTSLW

LoVo [20] = test: cells; details: Homo sapiens, 120 h
[21] = Cytotoxicity against BRCA2-deficient human Capan1 cells; type: functional, cell-based, CAPAN-1; details: Homo sapiens, CAPAN-1
Rattus norvegicus [22] = test: (§3) AUC in Sprague-Dawley rat at 10 mg/kg, po by LC-MS/MS analysis; type: ADME, organism-based; details: in vivo
[23] = Cmax in Sprague-Dawley rat at 10 mg/kg, po by LC-MS/MS analysis; type: ADME, organism-based; design: dose 10 mg/kg, route oral; details: in vivo
PARP 1, 2 and 3 = PARP 1, 2 and 3 (Homo sapiens, UniProt P09874+Q9Y6F1+Q9UGN5); test: Inhibition of PARP in human LoVo cells assessed as inhibition of poly(ADP)-ribose polymerization for 30 mins by fluorescence assay; type: cell-based
MX1 [24] = test: Antitumor activity against BRCA1 deficient human MX1 cells xenografted in athymic nu/nu mouse at 0.1 mg/kg, po qd administered for 21 days; type: functional, organism-based
Mus musculus [25] = test: Decrease in PAR level in athymic nu/nu mouse xenografted with human MX1 cells at 100 mg/kg, po measured after 24 hrs by ELISA; type: functional, organism-based
MX1 [26] = test: Potentiation of cisplatin-induced tumor growth inhibition of BRCA1 deficient human MX1 cells xenografted in po dosed athymic nu/nu mouse drug administered for 8 days and animals were treated with cisplatin at 6 mg/kg, ip on day 3; type: functional, organism-based
MX1 [27] = test: Antitumor activity against BRCA1 deficient human MX1 cells xenografted in athymic nu/nu mouse at 0.33 mg/kg, po qd administered for 28 days; type: functional, organism-based
MX1 [28] = test: Antitumor activity against BRCA1 deficient human MX1 cells xenografted in athymic nu/nu mouse assessed as tumor growth inhibition at 0.165 mg/kg, po administered twice a day for 28 days; type: functional, organism-based
Mus musculus [29] = test: Decrease in PAR level in athymic nu/nu mouse xenografted with human MX1 cells at 1 mg/kg, po administered as single dose measured after 2 ,8 and 24 hrs by ELISA; type: functional, organism-based
MX1 [30] = test: Potentiation of carboplatin-induced tumor growth inhibition of BRCA1 deficient human MX1 cells xenografted in athymic nu/nu mouse at 0.33 mg/kg po and animals were treated with carboplatin at 35 mg/kg, ip on day 1; type: functional, organism-based
CYP3A4 = CYP3A4 (Homo sapiens, UniProt P08684); test: Inhibition of CYP3A4 (unknown origin) at 10 uM; type: ADME
Sequence of CYP3A4 (P08684 whole entry): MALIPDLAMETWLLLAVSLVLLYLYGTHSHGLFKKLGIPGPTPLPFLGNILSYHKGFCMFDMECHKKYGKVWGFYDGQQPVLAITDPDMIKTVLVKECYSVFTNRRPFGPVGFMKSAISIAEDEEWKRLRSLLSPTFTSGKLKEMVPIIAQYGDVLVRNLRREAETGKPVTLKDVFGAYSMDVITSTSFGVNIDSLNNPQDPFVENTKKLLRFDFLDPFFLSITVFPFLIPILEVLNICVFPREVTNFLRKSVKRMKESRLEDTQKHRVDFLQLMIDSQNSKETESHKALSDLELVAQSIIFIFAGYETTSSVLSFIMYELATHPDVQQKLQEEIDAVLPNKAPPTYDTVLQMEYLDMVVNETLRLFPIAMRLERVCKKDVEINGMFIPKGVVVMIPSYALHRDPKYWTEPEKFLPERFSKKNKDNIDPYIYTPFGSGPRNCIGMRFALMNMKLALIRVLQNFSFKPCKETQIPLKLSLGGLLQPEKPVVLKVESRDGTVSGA

[31] = AUC (0 to t) in beagle dog at 0.1 mg/kg, po; type: ADME, organism-based, Canis lupus familiaris; details: in vivo
CYP2C9 = CYP2C9 (Homo sapiens, UniProt P11712); test: Inhibition of CYP2C9 (unknown origin) at 10 uM; type: ADME
Sequence of CYP2C9 (P11712 whole entry): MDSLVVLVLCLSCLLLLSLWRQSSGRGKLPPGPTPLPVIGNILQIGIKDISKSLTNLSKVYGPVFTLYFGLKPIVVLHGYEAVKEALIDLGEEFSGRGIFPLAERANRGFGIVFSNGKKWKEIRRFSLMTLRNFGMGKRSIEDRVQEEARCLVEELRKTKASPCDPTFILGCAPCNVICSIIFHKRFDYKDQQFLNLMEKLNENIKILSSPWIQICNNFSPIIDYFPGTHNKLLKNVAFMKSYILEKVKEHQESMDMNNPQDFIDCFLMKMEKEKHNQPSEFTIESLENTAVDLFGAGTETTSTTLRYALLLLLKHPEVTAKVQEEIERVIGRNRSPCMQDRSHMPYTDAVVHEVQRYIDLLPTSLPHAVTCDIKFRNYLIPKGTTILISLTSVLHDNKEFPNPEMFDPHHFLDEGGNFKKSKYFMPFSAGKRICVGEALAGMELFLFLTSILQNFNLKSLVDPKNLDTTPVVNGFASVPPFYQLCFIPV

MRC5 = test: Cytotoxicity against human MRC5 cells; type: cell-based; details: Homo sapiens, MRC5
[32] = as §1; type: ADME, organism-based; details: Sprague-Dawley, in vivo
[33] = Plasma protein binding in human; type: ADME, cell-free; details: read-out: PPB (converted)
[34] = Tmax in beagle dog at 0.1 mg/kg, po; type: ADME, organism-based, Canis lupus familiaris; details: in vivo
[35] = Clearance in Sprague-Dawley rat at 5 mg/kg, iv by LC-MS/MS analysis; type: ADME, organism-based; details: in vivo
Canis familiaris [36] = test: Clast in beagle dog at 0.1 mg/kg, po; type: ADME, organism-based, Canis lupus familiaris; details: in vivo
Rattus norvegicus [37] = test: as §2; type: ADME, organism-based; details: in vivo
Mus musculus [38] = test: Toxicity in athymic nu/nu mouse assessed as mortality at 0.1 to 0.33 mg/kg, po qd for 28 days; type: organism-based; details: in vivo, 672 h
CYP2C19 = CYP2C19 (Homo sapiens, UniProt P33261); test: Inhibition of CYP2C19 (unknown origin) at 10 uM; type: ADME
Sequence of CYP2C19 (P33261 whole entry): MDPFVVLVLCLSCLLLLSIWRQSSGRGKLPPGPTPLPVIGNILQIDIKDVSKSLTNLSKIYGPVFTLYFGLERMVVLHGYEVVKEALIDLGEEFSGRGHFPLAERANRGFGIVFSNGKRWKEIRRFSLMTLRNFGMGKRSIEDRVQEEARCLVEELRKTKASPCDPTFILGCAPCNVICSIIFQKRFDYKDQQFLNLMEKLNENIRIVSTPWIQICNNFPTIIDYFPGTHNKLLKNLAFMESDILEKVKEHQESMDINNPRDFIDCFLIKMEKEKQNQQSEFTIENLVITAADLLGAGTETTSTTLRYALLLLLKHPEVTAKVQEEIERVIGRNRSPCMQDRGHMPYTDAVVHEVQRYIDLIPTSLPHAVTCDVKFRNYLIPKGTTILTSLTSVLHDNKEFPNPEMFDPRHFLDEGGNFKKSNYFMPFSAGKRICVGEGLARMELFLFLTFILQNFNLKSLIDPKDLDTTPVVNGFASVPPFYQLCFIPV

CYP2D6 = CYP2D6 (Homo sapiens, UniProt P10635); test: Inhibition of CYP2D6 (unknown origin) at 10 uM; type: ADME
Sequence of CYP2D6 (P10635 whole entry): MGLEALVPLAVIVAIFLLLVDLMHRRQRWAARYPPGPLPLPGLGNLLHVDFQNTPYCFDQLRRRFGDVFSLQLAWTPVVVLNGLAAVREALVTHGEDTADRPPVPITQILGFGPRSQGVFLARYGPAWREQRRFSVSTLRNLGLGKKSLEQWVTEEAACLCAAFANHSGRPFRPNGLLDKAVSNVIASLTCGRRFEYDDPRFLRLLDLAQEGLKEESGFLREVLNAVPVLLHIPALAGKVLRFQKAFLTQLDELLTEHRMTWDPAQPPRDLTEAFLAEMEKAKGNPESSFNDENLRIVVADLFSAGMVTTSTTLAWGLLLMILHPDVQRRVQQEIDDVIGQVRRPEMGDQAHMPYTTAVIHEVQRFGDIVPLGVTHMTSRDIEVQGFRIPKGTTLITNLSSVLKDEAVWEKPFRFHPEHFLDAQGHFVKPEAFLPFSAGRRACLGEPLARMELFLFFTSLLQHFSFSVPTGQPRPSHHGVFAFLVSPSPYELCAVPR

Salmonella typhimurium = test: Mutagenicity in Salmonella typhimurium at 5 mg by Ames test; type: toxicity, organism-based, Salmonella enterica subsp. enterica serovar Typhimurium; details: in vivo
CYP1A2 = molecular target: T1, CYP1A2 (Homo sapiens, UniProt P05177); test: Inhibition of CYP1A2 (unknown origin) at 10 uM; type: ADME
T1 sequence (P05177 whole entry): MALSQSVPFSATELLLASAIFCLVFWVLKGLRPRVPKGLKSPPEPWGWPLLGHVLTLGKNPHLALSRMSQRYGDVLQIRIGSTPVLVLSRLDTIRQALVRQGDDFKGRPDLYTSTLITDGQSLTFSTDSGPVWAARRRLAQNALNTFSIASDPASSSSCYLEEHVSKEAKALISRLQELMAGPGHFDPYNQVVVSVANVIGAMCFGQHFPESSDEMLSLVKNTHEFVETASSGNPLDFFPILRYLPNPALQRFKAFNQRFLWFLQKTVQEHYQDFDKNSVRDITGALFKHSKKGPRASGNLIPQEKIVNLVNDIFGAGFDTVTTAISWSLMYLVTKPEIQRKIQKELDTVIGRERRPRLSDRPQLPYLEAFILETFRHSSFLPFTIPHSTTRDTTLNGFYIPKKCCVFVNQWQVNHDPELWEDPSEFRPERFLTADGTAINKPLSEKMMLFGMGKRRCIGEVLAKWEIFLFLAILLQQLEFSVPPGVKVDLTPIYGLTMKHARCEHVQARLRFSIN

Mus musculus [39] = test: Toxicity in athymic nu/nu mouse assessed as change in body weight at 0.1 to 0.33 mg/kg, po qd for 28 days; type: organism-based; details: in vivo, 672 h
[40] = as §3; type: ADME, organism-based; details: Sprague-Dawley, in vivo
[41] = Cmax in beagle dog at 0.1 mg/kg, po; type: ADME, organism-based, Canis lupus familiaris; design: dose 0.1 mg/kg, route oral; details: in vivo
[42] = molecular target: Voltage-gated inwardly rectifying potassium channel KCNH2 (Homo sapiens, UniProt Q12809); test: Inhibition of human ERG by cell based assay
Sequence of Voltage-gated inwardly rectifying potassium channel KCNH2 (Q12809 whole entry): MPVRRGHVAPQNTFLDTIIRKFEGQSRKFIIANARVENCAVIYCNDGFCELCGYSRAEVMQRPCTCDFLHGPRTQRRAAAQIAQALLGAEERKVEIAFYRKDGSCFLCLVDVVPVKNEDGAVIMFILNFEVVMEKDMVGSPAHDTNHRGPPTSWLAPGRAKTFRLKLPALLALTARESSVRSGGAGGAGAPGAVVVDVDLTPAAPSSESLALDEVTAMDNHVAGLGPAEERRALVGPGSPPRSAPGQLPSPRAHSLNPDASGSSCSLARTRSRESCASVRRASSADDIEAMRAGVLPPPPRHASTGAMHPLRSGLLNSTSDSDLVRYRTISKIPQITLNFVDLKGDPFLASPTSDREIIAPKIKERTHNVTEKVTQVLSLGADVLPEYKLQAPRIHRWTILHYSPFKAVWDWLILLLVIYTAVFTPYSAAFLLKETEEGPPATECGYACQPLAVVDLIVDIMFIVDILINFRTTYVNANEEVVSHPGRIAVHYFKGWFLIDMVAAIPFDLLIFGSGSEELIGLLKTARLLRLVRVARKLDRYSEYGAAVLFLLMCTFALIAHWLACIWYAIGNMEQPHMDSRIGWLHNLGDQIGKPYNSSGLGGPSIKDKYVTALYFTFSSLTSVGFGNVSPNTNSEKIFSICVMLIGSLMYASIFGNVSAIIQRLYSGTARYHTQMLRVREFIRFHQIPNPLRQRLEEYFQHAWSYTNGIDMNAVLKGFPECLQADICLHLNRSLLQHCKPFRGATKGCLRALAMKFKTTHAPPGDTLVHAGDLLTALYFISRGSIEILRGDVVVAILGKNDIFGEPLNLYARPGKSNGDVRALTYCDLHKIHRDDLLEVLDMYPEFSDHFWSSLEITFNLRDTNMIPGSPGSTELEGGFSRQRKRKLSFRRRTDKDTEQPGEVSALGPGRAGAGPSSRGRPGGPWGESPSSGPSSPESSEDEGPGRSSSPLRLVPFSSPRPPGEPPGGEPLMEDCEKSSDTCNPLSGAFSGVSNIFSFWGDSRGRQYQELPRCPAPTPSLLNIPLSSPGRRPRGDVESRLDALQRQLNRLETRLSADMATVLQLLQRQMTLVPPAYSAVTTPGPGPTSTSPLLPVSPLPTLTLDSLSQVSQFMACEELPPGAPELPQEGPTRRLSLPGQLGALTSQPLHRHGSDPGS

[43] = Absolute oral bioavailability in beagle dog at 0.1 mg/kg; type: ADME, organism-based, Canis lupus familiaris; details: in vivo
[44] = Apparent oral clearance in beagle dog at 0.1 mg/kg, po; type: ADME, organism-based, Canis lupus familiaris; details: in vivo
[45] = AUC (0 to infinity) in beagle dog at 0.1 mg/kg, po; type: ADME, organism-based, Canis lupus familiaris; design: dose 0.1 mg/kg, route oral, time infinity; details: in vivo
[46] = Half life in human; type: ADME, organism-based; details: in vivo
[47] = Half life in beagle dog at 0.1 mg/kg, po; type: ADME, organism-based, Canis lupus familiaris; details: in vivo
Mus musculus [48] = test: Decrease in PAR level in athymic nu/nu mouse xenografted with human MX1 cells at 100 mg/kg, po measured after 2 and 8 hrs by ELISA; type: functional, organism-based
MX1 [49] = test: Antitumor activity against BRCA1 deficient human MX1 cells xenografted in athymic nu/nu mouse at 100 mg/kg, po qd; type: functional, organism-based
LoVo [50] = tested on: LoVo

Compound: Cc1ccc(S(=O)(=O)O)cc1.Cn1ncnc1[C@H]1c2n[nH]c(=O)c3cc(F)cc(c23)N[C@@H]1c1ccc(F)cc1 [TALAZOPARIB TOSYLATE]
- AUC [1]: 600 ng·h/mL
- Vd [2]: 4.67 L/kg
- AUC (Canis familiaris [3]): 135 ng·h/mL
- Tmax [4]: 4 h
- AUC(0-t) [5]: 129 ng·h/mL
- Vd/F [6]: 5.81 L/kg
- clearance [7]: 3.3 mL/min/kg
- AUC (Canis familiaris [8]): 611 ng·h/mL
- Cmax [9]: 18.9 ng/mL
- half-life [10]: 26.7 h
- Clast (Canis familiaris [11]): 0.182 ng/mL
- Cmax [12]: 68 ng/mL
- half-life [13]: 24.4 h
- F (Canis familiaris [14]): 118.7%
- Clast (Canis familiaris [15]): 0.313 ng/mL

- Vd [16]: 0.73 L/kg
- F (Rattus norvegicus [17]): 68%
- half-life [18]: 2.1 h
- IC50 [19]: 1.6 nM
- GI50 (LoVo [20]): 25 nM
- AUC (Rattus norvegicus [22]): 1810 ng·h/mL
- Cmax [23]: 3990 ng/mL
- EC50 (PARP 1, 2 and 3): 17.9 nM
Compound: Cn1ccnc1[C@H]1c2n[nH]c(=O)c3cc(F)cc(c23)N[C@@H]1c1ccc(F)cc1
- EC50 [21]: 39 nM

Compound: Cn1ncnc1[C@H]1c2n[nH]c(=O)c3cc(F)cc(c23)N[C@@H]1c1ccc(F)cc1
- Activity (MX1 [24]): inactive
- inhibition (Mus musculus [25]): inactive
- Activity (MX1 [26]): Dose-dependent effect
- Activity (MX1 [27]): Active
- Activity (MX1 [28]): Active
- inhibition (Mus musculus [29]): Active
- Activity (MX1 [30]): Active

Compound: Cn1ncnc1[C@H]1c2n[nH]c(=O)c3cc(F)cc(c23)N[C@@H]1c1ccc(F)cc1 [TALAZOPARIB]
- inhibition at 10 µM (CYP3A4): < 12%
- Vd [16]: 0.3 L/kg
- AUC(0-t) [31]: 619 ng·h/mL
- inhibition at 10 µM (CYP2C9): < 12%
- EC50 (MRC5): 310 nM
- bioavailability [32]: 56%
- fraction unbound [33]: 0.213
- Tmax [34]: 2 h
- clearance [35]: 2 mL/min/kg
- Clast (Canis familiaris [36]): 0.365 ng/mL
- beta t1/2 (Rattus norvegicus [37]): 2.25 h
- Activity (Mus musculus [38]): Non-toxic
- inhibition at 10 µM (CYP2C19): < 12%
- inhibition at 10 µM (CYP2D6): < 12%
- GI50 (LoVo [20]): 4 nM
- Activity (Salmonella typhimurium): Non-toxic
- EC50 [21]: 5 nM
- inhibition at 10 µM (CYP1A2): < 12%
- Activity (Mus musculus [39]): Non-toxic
- AUC [40]: 56100 ng·h/mL
- Cmax [41]: 72.2 ng/mL
- IC50 [42]: > 100000 nM
- bioavailability [43]: 121%
- Cmax [23]: 7950 ng/mL
- CL/F [44]: 2.7 mL/min/kg
- AUC(0-inf) [45]: 629 ng·h/mL
- half-life [46]: 40 h
- half-life [47]: 17.9 h

- Vd [16]: 0.83 L/kg
- bioavailability [32]: 11%
- clearance [35]: 34.3 mL/min/kg
- half-life [18]: 0.53 h
- AUC [40]: 559 ng·h/mL
- GI50 (LoVo [50]): 237 nM
- Cmax [23]: 437 ng/mL
Compound: O=C(c1cc(Cc2n[nH]c(=O)c3ccccc23)ccc1F)N1CCN(C(=O)C2CC2)CC1 [OLAPARIB]
- inhibition (Mus musculus [48]): Active
- EC50 (MRC5): 5830 nM
- Activity (MX1 [49]): inactive
- EC50 [21]: 259 nM
